tested on: PDE IV; assay: Inhibition of PDE IV activity (method of Bauer and Schwabe, adapted to microtiter plates); format: biochemical; conditions: Hemmung der PDE IV-Aktivität
Source text: Der Aktivitätstest wurde nach der Methode von Bauer und Schwabe durchgeführt, die auf Mikrotiterplatten adaptiert wurde (Naunyn-Schmiedeberg's Arch. Pharmacol. 1980, 311, 193-198). Hierbei erfolgt im ersten Schritt die PDE-Reaktion. In einem zweiten Schritt wird das entstandene 5'-Nukleotid durch eine 5'-Nukleotidase des Schlangengiftes von ophiophagus hannah (King Cobra) zum ungeladenen Nukleosid gespalten. Im dritten Schritt wird das Nukleosid auf Ionenaustauschsäulen vom verbliebenen geladenen Substrat getrennt. Die Säulen werden mit 2 ml 30 mM Ammoniumformiat (pH 6,0) direkt in Minivials eluiert, in die noch 2 ml Szintillatorflüssigkeit zur Zählung gegeben wird.
Die für die erfindungsgemäßen Verbindungen ermittelten Hemmwerte ergeben sich aus der folgenden Tabelle A, in der die Nummern der Verbindungen den Nummern der Beispiele entsprechen. Tabelle A

| Compound | PDE4 -logIC50 |
| --- | --- |
| COc1ccc(C=C(C#N)c2ccncc2)c2cc(C(C)C)oc12 (mixture of isomers) [Verbindung 9, (E/Z)-4-[2-Cyano-2-(pyrid-4-yl)ethenyl]-2-isopropyl-7-methoxybenzofuran] | 6,64 |
| COc1ccc(C(O)Cc2ccncc2)c2cc(C3CCCC3)oc12 (racemic) [Verbindung 1] | 6,45 |
| COc1ccc(C(O)Cc2ccncc2)c2cc(C(C)C)oc12 (racemic) [Verbindung 2, (±)-4-[1-Hydroxy-2-(pyrid-4-yl)ethyl]-2-isopropyl-7-methoxybenzofuran] | 6,86 |
| COc1ccc(CC(C#N)c2ccncc2)c2cc(C3CCCC3)oc12 (racemic) [Verbindung 10, (±)-4-[2-Cyano-2-(pyrid-4-yl)ethyl]-2-cyclopentyl-7-methoxybenzofuran] | 6,56 |
| COc1ccc(CC(C#N)c2cccnc2)c2cc(C3CCCC3)oc12 (racemic) [Verbindung 11, (±)-4-[2-Cyano-2-(pyrid-3-yl)ethyl]-2-cyclopentyl-7-methoxybenzofuran] | 6,99 |
| COc1ccc(CC(C#N)c2ccncc2)c2cc(C(C)C)oc12 (racemic) [Verbindung 12, (±)-4-[2-Cyano-2-(pyrid-4-yl)ethyl]-2-isopropyl-7-methoxybenzofuran] | 7,26 |
| COc1ccc(/C=C/c2ccncc2)c2cc(C3CCCC3)oc12 [Verbindung 3, (E)-2-Cyclopentyl-4-[2-(pyrid-4-yl)ethenyl]-7-methoxybenzofuran] | 6,77 |
| COc1ccc(/C=C/c2ccncc2)c2cc(C(C)C)oc12 [Verbindung 4, (E)-2-Isopropyl-4-[2-(pyrid-4-yl)ethenyl]-7-methoxybenzofuran] | 7,21 |
| COc1ccc(CCc2ccncc2)c2cc(C3CCCC3)oc12 [Verbindung 5, 2-Cyclopentyl-7-methoxy-4-[2-(pyrid-4-yl)ethyl]benzofuran] | 7,97 |
| COc1ccc(CCc2ccncc2)c2cc(C(C)C)oc12 [Verbindung 6, 2-Isopronyl-7-methoxy-4-[2-(pyrid-4-yl)ethyl]benzofuran] | 8,22 |
| COc1ccc(/C=C(\C#N)c2ccncc2)c2cc(C3CCCC3)oc12 [Verbindung 7, (Z)-4-[2-Cyano-2-(pyrid-4-yl)ethenyl]-2-cyclopentyl-7-methoxy-benzofuran] | 6,29 |
| COc1ccc(/C=C(\C#N)c2cccnc2)c2cc(C3CCCC3)oc12 [Verbindung 8, (Z)-4-[2-Cyano-2-(pyrid-3-yl)ethenyl]-2-cyclopentyl-7-methoxy-benzofuran] | 6,51 |
